Literature values as cited in patent publication US10588873B2, “Topical antifungal compositions” (Exodos Life Sciences LP, priority 2015, dated 2020).

Conditions: only or first printed pKa

Q: Which pKa does the source give for CC(=O)CCC(=O)O [levulinic acid] here?
A: 4.6

Q: For CCCCCC(=O)O [caproic (hexanoic) acid], which pKa is on record?
A: 4.88
